Reference: patent publication US20150352099A1, “Compositions and Methods of Reducing Sedation” (Mentinova Inc., priority 2014, published 2015)
Where a name gives a salt, the structure may show the parent alone.

Key:
[1] = Pharmacokinetic parameters (Cmax, AUC, Tmax) of opioid given alone or with dopaminergic agent; settings: sc, 0.25 mg/kg; for AUC / Cmax: plasma; for Tmax: serum
[2] = tested on: Parkinsonian non-human primates; test: Drug effects on the nervous system (DENS) sedation scores, nalbuphine monotherapy; assay type: in vivo; settings: for Sedation Items: Appetite / Sedation Items: Attentiveness / Sedation Items: Eye Movement / Sedation Items: Mouth (excessive salivation, drooling) / Sedation Items: Reactivity: DENS score, total of all intervals; for Sedation Items: Total: total sedation score
Procedure: (§1) Parkinsonian non-human primates (n=6) were injected (s.c.) with Nalbuphine HCl (NB, dissolved in saline) and evaluated for changes in parkinsonian motor disability (MDS) and drug effects on the nervous system (DENS). Evaluations were performed immediately before injection (baseline), at 30 minutes post-injection and again every 20 minutes thereafter for 110 minutes or until effects were no longer observable. Five NB doses (0.0, 0.016, 0.05, 0.16, 0.50 mg/kg) were tested in each animal with each dose tested 3 times in all animals.
Itemized Sedation scores (see Uthayathas et al., “Assessment of adverse effects of neurotropic drugs in monkeys with the ‘drug effects on the nervous system’ (DENS) scale,” J Neurosci Methods. 2013 Apr. 30; 215(1):97-102, for complete description of the DENS scale, incorporated by reference herein in its entirety). The items in this scale are given in the table with the exception of “Involuntary Movements”, “Bowel” and “Bladder”, which were omitted because they were not scored with this scale. Scores are total values from adding all intervals. Higher scores reflect increased sedative effects. […] Values represent the means±SEM of all animals (n=6).

[3] = tested on: Parkinsonian non-human primates; test: Parkinsonian motor disability scores (MDS) versus sedation scores; assay type: in vivo; settings: nalbuphine 0.016 mg/kg-0.50 mg/kg in primates; the FIGURE
From the text: The foregoing summary, as well as the following detailed description of the invention, will be better understood when read in conjunction with the appended drawings. The FIGURE is a graph showing total sedation scores as a function of motor disability in non-human primates treated with nalbuphine HCl monotherapy.
In other words, severity of dopamine deficiency is a predictor of the sedation severity for the same dose of nalbuphine given to different animals.
as §1, with “Five NB doses (0.0, 0.016, 0.05, 0.16, 0.50 mg/kg) were tested in each animal with each dose tested 3 times in all animals.” left out
Animals (n=6) were injected (s.c.) with NB immediately prior to receiving L-dopa (LD; levodopa methyl ester plus 25% benserazide, dissolved in saline and given s.c.). The LD dose was determined individually for each animal based on ‘on’ response and consistency of dyskinesia. Animals were evaluated for changes in parkinsonian motor disability scores (MDS), drug effects on the nervous system (Sedation) and severity of dyskinesias. […]

[4] = NB 0.016 mg/kg s.c., mean ± SEM n=6
[5] = NB 0.05 mg/kg s.c., mean ± SEM n=6
[6] = NB 0.16 mg/kg s.c., mean ± SEM n=6
[7] = NB 0.5 mg/kg s.c., mean ± SEM n=6

Compound: Oc1ccc2c3c1O[C@H]1[C@@H](O)CC[C@@]4(O)[C@@H](C2)N(CC2CCC2)CC[C@]314 [NB, Nalbuphine HCl]
- AUC ([1]; average AUC of opioid, nalbuphine 0.25 mg/kg subcutaneously with L-DOPA 25 mg/kg subcutaneously): ~89 ng·h/mL
- AUC ([1]; average AUC, nalbuphine 0.25 mg/kg subcutaneously, alone): ~96 ng·h/mL
- Cmax ([1]; average Cmax of opioid, nalbuphine 0.25 mg/kg subcutaneously with L-DOPA 25 mg/kg subcutaneously): ~55 ng/mL
- Cmax ([1]; average Cmax, nalbuphine 0.25 mg/kg subcutaneously, alone): ~49 ng/mL
- Tmax ([1]; average Tmax of opioid, nalbuphine 0.25 mg/kg subcutaneously with L-DOPA 25 mg/kg subcutaneously): ~32 min
- Tmax ([1]; average Tmax, nalbuphine 0.25 mg/kg subcutaneously, alone): ~37 min
- Sedation Items: Appetite [2, 4]: 0.13 ± 0.13
- Sedation Items: Attentiveness [2, 4]: 2.00 ± 0.73
- Sedation Items: Eye Movement [2, 4]: 0.17 ± 0.17
- Sedation Items: Mouth (excessive salivation, drooling) [2, 4]: 0.13 ± 0.09
- Sedation Items: Reactivity [2, 4]: 0.67 ± 0.36
- Sedation Items: Total ([2]; NB 0.016 mg/kg s.c.): 3.08
- Sedation Items: Appetite [2, 5]: 0.56 ± 0.26
- Sedation Items: Attentiveness [2, 5]: 2.75 ± 1.07
- Sedation Items: Eye Movement [2, 5]: 0.54 ± 0.25
- Sedation Items: Mouth (excessive salivation, drooling) [2, 5]: 0.17 ± 0.11
- Sedation Items: Reactivity [2, 5]: 1.58 ± 0.85
- Sedation Items: Total ([2]; NB 0.05 mg/kg s.c.): 5.61
- Sedation Items: Mouth (excessive salivation, drooling) ([2]; NB 0.16 mg/kg s.c., mean n=6): 0.00
- Sedation Items: Appetite [2, 6]: 1.48 ± 1.03
- Sedation Items: Attentiveness [2, 6]: 3.17 ± 1.51
- Sedation Items: Eye Movement [2, 6]: 2.44 ± 0.94
- Sedation Items: Reactivity [2, 6]: 4.1 ± 1.60
- Sedation Items: Total ([2]; NB 0.16 mg/kg s.c.): 11.19
- Sedation Items: Appetite [2, 7]: 4.79 ± 0.78
- Sedation Items: Attentiveness [2, 7]: 5.17 ± 1.34
- Sedation Items: Eye Movement [2, 7]: 3.29 ± 1.10
- Sedation Items: Mouth (excessive salivation, drooling) [2, 7]: 1.17 ± 1.07
- Sedation Items: Reactivity [2, 7]: 6.65 ± 2.15
- Sedation Items: Total ([2]; NB 0.5 mg/kg s.c.): 21.06
- parkinsonian motor disability scores (MDS) versus sedation scores [3]: correlate with sedation scores
